From US10934250B2, “Process for the preparation of a chelating agent” (TRADE CORPORATION INTERNATIONAL, S.A. UNIPERSONAL, priority 2015, dated 2021)

Assay: Stability constants of Fe3+ chelates by spectrophotometric titration
Format: physicochemical
Settings: for Stability constant, L + H^+ + Fe^3+ -> FeHL / Stability constant, L + Fe^3+ -> FeL / Stability constant, L + OH^- + Fe^3+ -> FeOHL: chelant agent:Fe^3+ 1:1, I=0.10M (NaCl), titration with 0.1 M NaOH pH 2.7 to 12.0, absorbance at 480 nm; for Stability constant, L + H^+ + Fe^3+ -> FeHL: FeHL predominant at pH <4.0; for Stability constant, L + Fe^3+ -> FeL: FeL predominant at pH 4 to 6.5; for Stability constant, L + OH^- + Fe^3+ -> FeOHL: FeOHL predominant at pH >6.5
Method: Stability constant of the Fe^3+ chelate compound of Example 4 (CRENEAHA) were determined spectrophotometrically by titration of a 2.22·10^−4 M (12.5 mg/L) and I=0.10M (NaCl) with 0.1 M NaOH from a pH of 2.7 to a pH of 12.0 and measuring the absorbance variation at 480 nm.
Stability constant of the Fe^3+ chelate compound of Example 2 (CREMEAHA) were determined spectrophotometrically by titration of a […] (12.5 mg/L) and I=0.10M (NaCl) with 0.1 M NaOH from a pH of 2.7 to a pH of 12.0 and measuring the absorbance variation at 480 nm.
Stability constants were determined minimizing the difference between calculated absorbance and experimental absorbance by varying the stability constants of Fe^3+. Every assay was repeated four times. The stability constant value for each compound is not dependent on the concentration of the solution used to carry out the spectrophotometric titration.

Row | Stability constant, L + H^+ + Fe^3+ -> FeHL | Stability constant, L + Fe^3+ -> FeL | Stability constant, L + OH^- + Fe^3+ -> FeOHL | Stability of the Fe^3+ chelate compared with the Fe^3+ chelate of Example 2 (CREMEAHA) (particularly at high pH) | Compound
1 | 37.5 | 33.4 | 26.9 | better stability | Cc1ccc(O)c(C(NCCNCCO)C(=O)O)c1 (stereo not shown) [CRENEAHA]
2 | 33.9 | 28.6 | 21.2 |  | Cc1ccc(O)c(C(NCCO)C(=O)O)c1 (stereo not shown) [CREMEAHA]
